The text below walks through data of PMC4608554 (Bioorganic & medicinal chemistry, 2015).

Data set [1] can be described thus: Tissue distribution/metabolism of chelators in rats. It is filed as in vivo, rat (male Sprague-Dawley). The conditions noted are these: for concentration in kidney: rat kidney.
Data set [2] has as its system non-iron-overloaded, bile duct-cannulated rats. The conditions noted are these: cited from earlier work.
The conditions of data set [3]: rat liver, sc 300 µmol/kg, cited from earlier work; for fraction of parent polyether cleaved to 2 (from 5) or 3 (from 6): 2 h.
For data set [4] the following is noted: even when administered b.i.d.; cited from earlier work.
In data set [5] the test system is non-iron-overloaded, bile duct-cannulated rats. The data set is described as follows: Chelator-induced iron clearance. It is filed as in vivo. Particulars: po, 300 µmol/kg.
Data set [6] has as its system iron-overloaded Cebus apella monkeys. The data set can be described thus: Chelator-induced iron clearance. It is filed as in vivo. The conditions noted are these: 75 µmol/kg, same animals po and sc.
For data set [7] the test system is unchanged. Particulars: po, 75 µmol/kg, cited from earlier work.
The next data set deals with rats. The conditions noted are these: rat, cited from earlier work.
The next data set concerns male Sprague-Dawley rats. The data set can be described thus: 10-day toxicity trial of 11 in rats. In kind it is in vivo, rat. The conditions noted are these: 384 µmol/kg/day.
The mark [8] stands for this setting: rat liver, 8 h after 8 sc 300 µmol/kg.
[9] abbreviates: rat plasma, 8 h after 8 sc 300 µmol/kg.
Where [10] appears, read: rat heart, 0.5 h after 11 sc 300 µmol/kg.
Where [11] appears, read: rat liver, 0.5 h after 11 sc 300 µmol/kg.
[12] abbreviates: rat liver, 1 h after 11 sc 300 µmol/kg.
Setting [13] is: rat pancreas, 0.5 h after 11 sc 300 µmol/kg.
[14] abbreviates: rat plasma, 4 h after 11 sc 300 µmol/kg.
Setting [15] is: bile duct-cannulated rats, po, 150 µmol/kg.

Where “and” joins values, the source holds several entries; their conditions need not be identical. Identical values can stand only once. Entries after “also recorded” stand apart in the source; their conditions may differ. Like-named read-outs stand apart in the source and are kept apart here.

In the case of `C[C@]1(C(=O)O)CSC(c2ccc(OCCOCCO)cc2O)=N1` [compound 8, (S)-4,5-dihydro-2-[2-hydroxy-4-(5-hydroxy-3-oxapentyloxy)phenyl]-4-methyl-4-thiazolecarboxylic acid], the “share of the drug (parent + metabolite)” value in data set [1] (rat liver, 0.5 h after 8 sc 300 µmol/kg) was 53%. In data set [1] (setting [8]), the presence in liver result was “very little”. Moreover, in [1] (rat plasma, 0.5 h after 7 sc 300 µmol/kg), the “share of total drug concentration” value amounted to 5%. Further, in [1] (setting [9]), the presence in plasma entry is reported as “Neither the parent 8 nor the metabolite 9 was found”.

On to `CCCCOc1ccc(C2=N[C@@H](C(=O)O)CS2)c(O)c1` [(S)-2-(4-butoxy-2-hydroxyphenyl)-4,5-dihydro-4-thiazolecarboxylic acid], for which the time to deaths in data set [2] (4'-butoxy analogue of 2) is on record as no more than 24 h.

Turning to `COCCOCCOCCOc1ccc(C2=N[C@@](C)(C(=O)O)CS2)c(O)c1` [compound 5, (S)-4,5-dihydro-2-[2-hydroxy-4-(3,6,9-trioxadecyloxy)phenyl]-4-methyl-4-thiazolecarboxylic acid], the “fraction of parent polyether cleaved to 2 (from 5) or 3 (from 6)” value in data set [3] was 2%. Also, the renal toxicity result in [4] was “no renal toxicity”.

On to `COCCCCCCOc1ccc(C2=N[C@@](C)(C(=O)O)CS2)c(O)c1` [compound 10, (S)-4,5-dihydro-2-[2-hydroxy-4-(6-methoxyhexyloxy)phenyl]-4-methyl-4-thiazolecarboxylic acid], for which the “overt toxicity in rats” value in data set [5] (bile duct-cannulated rats) was “profoundly toxic; also recorded: very toxic”. Besides, the “time of death of one of the animals post drug” value in [5] (bile duct-cannulated rats, remaining rodents euthanized at 24 h) is ~ 22 h. Moreover, in [5] (rat), the “time of peak drug-induced iron excretion post drug” value amounted to 6 h.

With `C[C@]1(C(=O)O)CSC(c2ccc(OCCCC(=O)O)cc2O)=N1` [compound 13, (S)-4,5-dihydro-2-[2-hydroxy-4-(3-carboxypropyloxy)phenyl]-4-methyl-4-thiazolecarboxylic acid], the concentration in heart in [1] (setting [10]) is reported as ~ 46 nmol/g wet weight; in [1] (rat heart, 1 h after 11 sc 300 µmol/kg), ~ 46 nmol/g wet weight. For the same molecule, in [1] (rat heart, later time points (2-8 h) after 11 sc 300 µmol/kg), the presence in heart result is listed as “not found”. The values for the concentration in kidney in [1] (0.5 h after 11 sc 300 µmol/kg), in data set [1] (1 h after 11 sc 300 µmol/kg) and in [1] (8 h after 11 sc 300 µmol/kg) were ~ 300 nmol/g wet weight, ~ 300 nmol/g wet weight and “not detectable”, respectively. Further, the “share of the total drug (parent + metabolites)” value in data set [1] (setting [11]) is 71%; in data set [1] (setting [12]) it was 73%; in data set [1] (rat liver, 2 h after 11 sc 300 µmol/kg) it was 66%; in [1] (rat liver, 4 h after 11 sc 300 µmol/kg), 70%. In addition, the presence in liver result in data set [1] (rat liver, 8 h after 11 sc 300 µmol/kg) is on record as “no 13 remained”. Also, the concentration in pancreas in data set [1] (setting [13]) was 19 nmol/g wet weight; in data set [1] (rat pancreas, 1 h after 11 sc 300 µmol/kg), 23 nmol/g wet weight. Besides, the “share of the total (parent + metabolites)” value in data set [1] (rat plasma, 0.5 h after 11 sc 300 µmol/kg) came to 62%; in data set [1] (setting [14]), 50%. Besides, the “share of the total plasma drug concentration” value in data set [1] (rat plasma, 8 h after 11 sc 300 µmol/kg) turned out to be 65%. The “sc ICE vs po ICE in the primates (times higher)” value in data set [6] amounted to 3.4 times.

On to `C[C@]1(C(=O)O)CSC(c2ccc(OCCOCC(=O)O)cc2O)=N1` [compound 9, (S)-4,5-dihydro-2-[2-hydroxy-4-(4-carboxy-3-oxabutyloxy)phenyl]-4-methyl-4-thiazolecarboxylic acid], for which the “share of the drug (parent + metabolite)” value in data set [1] (rat liver, 1 h after 8 sc 300 µmol/kg) was found to be 59%. In addition, the presence in liver entry in data set [1] (setting [8]) is recorded as “no metabolite 9 remains”. In addition, the “share of drug converted to / in the form of metabolite” value in [1] (rat plasma, 0.5 h after 8 sc 300 µmol/kg) is on record as roughly 60%. In addition, the “share of drug in the form of the metabolite” value in [1] (rat plasma, 2 h after 8 sc 300 µmol/kg) was determined as 88%. For the same molecule, the presence in plasma entry in [1] (setting [9]) is “Neither the parent 8 nor the metabolite 9 was found”. Further, in [1] (rat tissues, 7 sc 300 µmol/kg), the “presence of carboxylic acid 9 in tissues after 7” value is recorded as “not detected”.

On to `COCCOCCOCCOc1cccc(C2=N[C@@](C)(C(=O)O)CS2)c1O` [compound 6, (S)-4,5-dihydro-2-[2-hydroxy-3-(3,6,9-trioxadecyloxy)phenyl]-4-methyl-4-thiazolecarboxylic acid], for which, in data set [2] (setting [15]), the ICE was 18.7 ± 2.9% and the iron decorporated was 0.782 ± 0.121 mg/kg. For the same molecule, in [2] (bile duct-cannulated rats, po, 300 µmol/kg), the “quantity of iron excreted” value is on record as 0.887 ± 0.367 mg/kg. In addition, in data set [3], the “fraction of parent polyether cleaved to 2 (from 5) or 3 (from 6)” value is reported as 2.6%. Besides, the renal toxicity result in data set [4] is “no renal toxicity”.

Take `COCCOCCOc1ccc(C2=N[C@@](C)(C(=O)O)CS2)c(O)c1` [compound 7, (S)-4,5-dihydro-2-[2-hydroxy-4-(3,6-dioxaheptyloxy)phenyl]-4-methyl-4-thiazolecarboxylic acid]: the “cleavage of the terminal methyl of 7 to alcohol 8” value in [1] (rat tissues, 7 sc 300 µmol/kg) is given as “did occur”. Further, the “cleavage of 7 at the 4'-(HO) to 2” value in data set [1] (rats, 7 sc 300 µmol/kg) is given as “does not sustain metabolic cleavage”. Further, the “Primate ICE (%)” value in data set [7] (as monosodium salt) was 28.7 ± 12.4%; in [7] (in capsules), ~ 26% and 26.3 ± 9.9%. Further, the histopathology result with rats (extensive tissues) is “no drug-related abnormalities were identified”. In addition, the “urinary Kim-1 excretion” value with rats (up to 28 d) is reported as “did not elicit any increases”.

Turning to `C[C@]1(C(=O)O)CSC(c2ccc(OCCCCCCO)cc2O)=N1` [compound 11, (S)-4,5-dihydro-2-[2-hydroxy-4-(6-hydroxyhexyloxy)phenyl]-4-methyl-4-thiazolecarboxylic acid], the concentration in heart in [1] (setting [10]) is reported as 26 nmol/g wet weight. For the same molecule, in data set [1] (0.5 h after 11 sc 300 µmol/kg), the concentration in kidney result was “trace amounts”. In data set [1] (rat liver, any of the time points (0.5-8 h) after 11 sc 300 µmol/kg), the presence in liver result is “not found”. Further, the concentration in pancreas in data set [1] (setting [13]) is less than 5 nmol/g wet weight. Further, the “share of the total (parent + metabolites)” value in [1] (setting [14]) is given as “no longer detectable”. In addition, in data set [1] (rats, 11 sc 300 µmol/kg), the “conversion of alcohol 11 to metabolites 12-14” value is listed as “Significant conversion; also recorded: quickly converted; also recorded: very quickly converted”. In addition, the “overt toxicity in rats” value in [5] (bile duct-cannulated rats) is “did not present with any overt toxicity; also recorded: did not display any overt toxicity; also recorded: did not elicit any signs of overt toxicity”. Also, the survival entry in the data set with male Sprague-Dawley rats (rat, po by gavage once daily for ten days) is recorded as “survived”. The “histopathology (25 tissues/rat)” value with male Sprague-Dawley rats (rat, po once daily x 10 d) was “could not identify any drug-related abnormalities”. In addition, in the data set on male Sprague-Dawley rats (rodents, once daily for 10 days), the overall toxicity result is “complete lack of toxicity”.

For `C[C@]1(C(=O)O)CSC(c2ccc(OCCCCCC(=O)O)cc2O)=N1` [compound 12, (S)-4,5-dihydro-2-[2-hydroxy-4-(5-carboxypentyloxy)phenyl]-4-methyl-4-thiazolecarboxylic acid], the “presence in cardiac tissue” value in data set [1] (rat heart, any of the time points after 11 sc 300 µmol/kg) is on record as “not found”. Besides, the concentration in kidney entry in [1] (0.5 h after 11 sc 300 µmol/kg) and in data set [1] (1 h after 11 sc 300 µmol/kg) was “found” each time. Besides, the presence in liver entry in data set [1] (rat liver, 2, 4, or 8 h after 11 sc 300 µmol/kg) is on record as “not detected”. Moreover, the “share of the total drug (parent + metabolites)” value was determined as 11% in data set [1] (setting [11]) and 2% in data set [1] (setting [12]). Further, the presence in pancreas result in data set [1] (rat pancreas, any of the time points after 11 sc 300 µmol/kg) was “not found”. In addition, in [1] (rat plasma, 0.5-8 h after 11 sc 300 µmol/kg), the presence in plasma result is on record as “None”.

On to `COc1ccc(C2=N[C@@](C)(C(=O)O)CS2)c(O)c1` [compound 4, (S)-4,5-dihydro-2-(2-hydroxy-4-methoxyphenyl)-4-methyl-4-thiazolecarboxylic acid], for which the “fraction of parent demethylated to 2” value in [3] (2 h post drug) is recorded as “about 30%”.
